From US11826369B2, “Targeting the TLK1/NEK1 axis in prostate cancer” (Board of Supervisors of Louisiana State University and …, priority 2019, dated 2023)

How the values were obtained:
[1] = tested on: recombinant human dopamine receptors (D1 and D3); test: Competitive radioassay with 7-Hydroxy DPAT, R-(+)-[3H] tracer; format: binding; details: 100 nM, compared to THD
[2] = tested on: LNCaP, C4-2B, 22RV1, DU14, PC3, TRAMP-C2; test: Cell proliferation assays of PCa cell line panel; format: cell-based; details: androgen containing medium (FBS)
Experimental: (§1) All experiments were conducted in triplicates. […] The cells were grown for 2-3 weeks and stained with crystal violet. All experiments were conducted in triplicates. […] The cell lines used were human “normal” RWPE-1, LNCaP, (LNCaP-derivative) C4-2B, 22RV1, DU14, PC3, and mouse TRAMP-C2. FIGS. 11C and 11D show cell proliferation of LNCaP and TRAMP-C2 were determined during a 3 days incubation with different concentration of J54 (MTS assay). All experiments were conducted in triplicates. […] Representative analysis of two independent experiments are shown.
(§2) J54 in combination with anti-androgen (Bicalutamide) induces apoptosis in AS PCa cells. […] The inventors thus tested the same panel of cells in androgen containing medium (FBS) by proliferation assays. […] Note that VCaP cells were 60% inhibited by J54 alone, consistent with their elevated replication stress-driven DDR and checkpoint activation (FIG. 12E), which when suppressed with J54 could lead to apoptosis. Clonogenic assays are unable to distinguish the effects of a DNA damaging agent, which can result in either an impaired or delayed resumption of growth (cell division) or loss of viability due to increased killing of the initial population. The inventors thus measured in LNCaP and TRAMP-C2 cells the early change in cell number (MTT assay) over 72 h with J54 alone.

[3] = tested on: LNCaP, VCaP and TRAMP-C2; test: Clonogenic assays of AS PCa cells; format: cell-based
Experimental: as §1, §2

[4] = tested on: VCaP cells; test: Clonogenic assay, VCaP; format: cell-based; details: J54 alone
Experimental: as §1, §2

[5] = tested on: LNCaP and TRAMP-C2 cells; test: Early change in cell number (MTT assay) over 72 h; format: cell-based; details: J54 alone
Experimental: as §1, §2

[6] = tested on: p-Nek1-T141 in LNCaP, VCaP, TRAMP-C2; test: Western blots of checkpoint and apoptotic markers; format: cell-based; details: with or without BIC, all 3 AS cell lines
Experimental: LNCaP, VCaP, and TRAMP-C2 cells from the four treatment groups as indicated were analyzed by WB for several indicators of DNA damage/apoptosis and mediators of cell cycle arrest. Representative analysis of two independent experiments for each cell line are shown
J54 with Bicalutamide suppresses the checkpoint markers and induces apoptotic markers. LNCaP, VCaP, and TRAMP-C2 are the main examples of established PCa cell lines that are initially AS, but when maintained in ADT condition, recapitulate the conversion to AI growth observed in patients, and start growing again. In the initial phase of ADT, they arrest cell division, primarily at the G1/S transition, and become quiescent, which is a protective effect from undergoing replication forks collapse upon inhibition of the licensing function of the AR. […] The inventors were also able to reproduce that the expression of TLK1B was induced in LNCaP and TRAMP-C2 following the addition of BIC. […] The VCaP cells were a little different because even without any BIC, p-ATR and p-Chk1 were already elevated. This has been observed before and attributed to a constitutive DDR activation due to the TMPRSS2-ERG fusion in these cells.

[7] = General assessment of mice following injections; format: in vivo
Text: We then did a general assessment of mice following injections of J54. […] To get a better assessment of the possible behavioral effects of J54, the inventors used C. elegans that has a simple but complete nervous system and has been well characterized for its responses to anti-psychotic drugs, including actions at serotonin or dopamine receptors.

[8] = biological target: T1, recombinant TLK1B (Homo sapiens, UniProt Q9UKI8); test: TLK1B kinase assay with Nek1 peptide (ADP Hunter), inhibitor screening; format: biochemical; set-up: The full-length, 65 KDa recombinant human TLK1B (hTLK1B) for the in-vitro experiments was expressed and purified from bacteria; made in house; host or cells: bacteria
T1 sequence (Q9UKI8 1-549 isoform Q9UKI8-3): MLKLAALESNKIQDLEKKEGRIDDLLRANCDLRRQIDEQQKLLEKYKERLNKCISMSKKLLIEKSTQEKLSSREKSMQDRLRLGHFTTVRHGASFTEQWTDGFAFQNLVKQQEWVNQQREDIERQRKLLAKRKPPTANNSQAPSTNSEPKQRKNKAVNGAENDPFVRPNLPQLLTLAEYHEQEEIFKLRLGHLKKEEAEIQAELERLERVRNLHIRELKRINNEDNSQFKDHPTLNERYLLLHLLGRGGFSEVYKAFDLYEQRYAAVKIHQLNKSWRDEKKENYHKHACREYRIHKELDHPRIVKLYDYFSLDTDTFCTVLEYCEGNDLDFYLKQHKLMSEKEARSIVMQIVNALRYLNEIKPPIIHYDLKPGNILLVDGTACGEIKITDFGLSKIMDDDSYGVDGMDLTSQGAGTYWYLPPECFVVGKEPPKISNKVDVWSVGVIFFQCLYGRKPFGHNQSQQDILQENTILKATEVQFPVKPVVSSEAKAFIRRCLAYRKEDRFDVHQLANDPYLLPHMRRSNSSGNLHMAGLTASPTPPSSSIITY
Experimental: FIG. 8A-FIG. 25 show further experiments into the present invention, with FIGS. 8A-8G show kinase assays, inhibitor screening, IC50 evaluation and competitive assays. Recombinant TLK1B purified to homogeneity (FIG. 8A) is active in kinase assays (FIG. 8B) and phosphorylates a specific Nek1 peptide (FIG. 8C). […] All experiments were conducted in triplicates. The DiscoverRx ADP Hunter™ (Eurofins DiscoverRx, Fremont, CA, US) Kit was used to measure the generation of ADP resulting from kinase phosphorylation of substrate.
Chemical synthesis of J54 and several different Phenothiazines and Protein expression and purification: Details were explained in section B of supplementary of material and methods. The full-length, 65 KDa recombinant human TLK1B (hTLK1B) for the in-vitro experiments was expressed and purified from bacteria as described earlier.
Results: A new PTH potent inhibitor of TLK1B. A few PTH antipsychotics were identified in a screen the inventors conducted from a compounds library as good inhibitors of TLK1. To find additional inhibitors, recombinant TLK1B was purified (FIG. 8A). The enzymatic activity was determined using the ADP-Hunter reagents and a Nek1 peptide containing the T141 target site. […] Several structurally similar compounds were synthesized as described in the Appendix (and see NMR and MS data FIGS. 10 and 11) and tested at 20 μM (FIGS. 8E and 8F). […] The inventors continued the inventors' characterization of J54.

c1ccc2c(c1)Sc1ccccc1N2CCN1CCOCC1 [J54, 4-(2-(10H-phenothiazin-10-yl)ethyl) morpholine]
antagonism of dopamine receptors [1]: very weak antagonist | concentration of maximal efficacy [2]: around 18 μM | inhibition of proliferation [2]: weak dose-dependent inhibition | growth of colonies of LNCaP cells cultured with BIC [3]: suppresses the growth of androgen-dependent colonies | inhibition of colony formation [4]: 60% | change in cell number [5]: actual loss in cell counts in relation to the dose | p-Nek1-T141 level [6]: reduction in the p-Nek1-T141 | toxicity ([7]; incl. gross inspection of organs at necropsy): no toxicity | behavioral changes ([7]; mouse, in vivo): no behavioral changes | body weight ([7]; mouse, in vivo): no decrease in body weight | IC50 ([8]; new inhibitor screening assay): 12.6 µM | inhibition of TLK1B compared with standard ([8]; tested at 20 μM): more inhibitory than Staurosporin
